Where two headings read alike, the source gives them in different places.
Tests used:
JAK1 = target: T1, JAK1 (Homo sapiens, UniProt P23458); experiment: Biochemical JAK1 kinase assay (LanthaScreen); details: for Ki: read-out: JAK 1 (pKi) (converted)
T1 construct: GST; purchased Life Technologies
Procedure, shortened: (§1)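 Recombinant GST-tagged JAK enzymes with GFP-STAT1 peptide substrate in 50 mM HEPES pH 7.5, 10 mM MgCl2, 1 mM EGTA, 0.01% Brij-35; compounds pre-incubated 1 h, then ATP added, 1 h reaction at ambient temperature. TR-FRET (Tb-anti-pSTAT1 pTyr701, 520/495 nm) after EDTA stop; IC50 by 4-parameter fit, converted to pKi via Cheng-Prusoff.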

JAK2 = target: T2, JAK2 (Homo sapiens, UniProt O60674); experiment: Biochemical JAK2 kinase assay (LanthaScreen); details: for Ki: read-out: JAK 2 (pKi) (converted)
T2 construct: GST; purchased Life Technologies
Procedure, shortened: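 GST-tagged recombinant JAK2 pre-incubated 1 h at ambient temperature with compound and GFP-STAT1 peptide in HEPES pH 7.5/MgCl2 buffer, then ATP added for a 1 h reaction with 1% DMSO. TR-FRET read after EDTA and Tb-anti-pSTAT1 (pTyr701) addition; IC50 from 4-parameter fit, converted to pKi by Cheng-Prusoff.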

Tyk2 = target: T3, Tyk2 (Homo sapiens, UniProt P29597); experiment: Biochemical Tyk2 kinase assay (LanthaScreen); details: for Ki: read-out: Tyk 2 (pKi) (converted)
T3 construct: GST; purchased Life Technologies
Procedure, shortened: as §1

[1] = tested on: IL-2 stimulated pSTAT5 in Tall-1 T cells; experiment: Cellular JAK3 potency assay: inhibition of IL-2 stimulated pSTAT5 in Tall-1 T cells; type: cell-based, human; details: for IC50: Homo sapiens, read-out: Tall-1 (pIC50) (converted)
Procedure, shortened: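 In human Tall-1 T cells, IL-2 (300 ng/ml final, 30 min) drives STAT5 phosphorylation after a 1 h compound pretreatment. Lysates are assayed for pSTAT5 by AlphaLisa, and IC50 derived from signal versus concentration is expressed as pIC50.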

JAK3 = target: T4, JAK3 (Homo sapiens, UniProt P52333); experiment: Biochemical JAK3 kinase assay (LanthaScreen); design: GST; purchased Life Technologies; details: for Ki: read-out: JAK 3 (pKi) (converted)
T4 sequence (P52333 1-1124): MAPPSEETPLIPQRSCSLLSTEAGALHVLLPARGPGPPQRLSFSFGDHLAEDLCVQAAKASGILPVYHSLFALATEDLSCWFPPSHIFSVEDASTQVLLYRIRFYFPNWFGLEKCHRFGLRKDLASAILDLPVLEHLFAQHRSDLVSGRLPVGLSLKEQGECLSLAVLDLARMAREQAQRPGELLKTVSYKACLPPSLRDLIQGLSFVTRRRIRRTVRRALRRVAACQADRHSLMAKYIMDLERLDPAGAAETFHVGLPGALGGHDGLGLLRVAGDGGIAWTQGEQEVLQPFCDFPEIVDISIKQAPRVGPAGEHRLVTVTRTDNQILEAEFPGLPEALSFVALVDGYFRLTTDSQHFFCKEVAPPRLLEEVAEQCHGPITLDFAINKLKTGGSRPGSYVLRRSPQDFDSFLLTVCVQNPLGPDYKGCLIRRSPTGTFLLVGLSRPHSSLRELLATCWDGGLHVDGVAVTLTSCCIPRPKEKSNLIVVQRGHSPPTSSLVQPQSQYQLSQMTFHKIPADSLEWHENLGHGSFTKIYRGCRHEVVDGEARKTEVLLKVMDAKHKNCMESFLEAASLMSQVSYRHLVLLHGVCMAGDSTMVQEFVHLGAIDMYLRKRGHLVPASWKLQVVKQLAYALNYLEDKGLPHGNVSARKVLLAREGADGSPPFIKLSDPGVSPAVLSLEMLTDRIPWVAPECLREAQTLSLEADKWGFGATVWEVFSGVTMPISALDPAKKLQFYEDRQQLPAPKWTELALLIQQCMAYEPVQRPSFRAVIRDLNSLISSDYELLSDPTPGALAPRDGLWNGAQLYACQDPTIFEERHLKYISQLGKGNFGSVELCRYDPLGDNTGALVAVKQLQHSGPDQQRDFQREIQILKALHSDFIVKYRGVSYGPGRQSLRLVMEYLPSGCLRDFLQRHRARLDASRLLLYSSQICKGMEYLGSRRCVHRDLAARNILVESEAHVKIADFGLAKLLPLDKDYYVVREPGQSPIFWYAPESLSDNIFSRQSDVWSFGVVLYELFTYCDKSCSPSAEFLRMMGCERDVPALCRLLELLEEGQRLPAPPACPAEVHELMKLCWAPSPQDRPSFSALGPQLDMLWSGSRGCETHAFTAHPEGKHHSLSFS
Procedure, shortened: as §1

[2] = TALL-1, IL-2 stimulated pSTAT5 in Tall-1 T cells
[3] = selectivity: difference of pKi JAK3 and pKi JAK1
[4] = TALL-1, IL-2 stimulated pSTAT5, Tall-1 T cells
[5] = selectivity JAK3 over JAK1, difference of pKi
[6] = IL-2 stimulated pSTAT5, Tall-1 T cells
[7] = IL-2 stimulated pSTAT5 in Tall-1 T cells

T1 sequence (P23458 whole entry): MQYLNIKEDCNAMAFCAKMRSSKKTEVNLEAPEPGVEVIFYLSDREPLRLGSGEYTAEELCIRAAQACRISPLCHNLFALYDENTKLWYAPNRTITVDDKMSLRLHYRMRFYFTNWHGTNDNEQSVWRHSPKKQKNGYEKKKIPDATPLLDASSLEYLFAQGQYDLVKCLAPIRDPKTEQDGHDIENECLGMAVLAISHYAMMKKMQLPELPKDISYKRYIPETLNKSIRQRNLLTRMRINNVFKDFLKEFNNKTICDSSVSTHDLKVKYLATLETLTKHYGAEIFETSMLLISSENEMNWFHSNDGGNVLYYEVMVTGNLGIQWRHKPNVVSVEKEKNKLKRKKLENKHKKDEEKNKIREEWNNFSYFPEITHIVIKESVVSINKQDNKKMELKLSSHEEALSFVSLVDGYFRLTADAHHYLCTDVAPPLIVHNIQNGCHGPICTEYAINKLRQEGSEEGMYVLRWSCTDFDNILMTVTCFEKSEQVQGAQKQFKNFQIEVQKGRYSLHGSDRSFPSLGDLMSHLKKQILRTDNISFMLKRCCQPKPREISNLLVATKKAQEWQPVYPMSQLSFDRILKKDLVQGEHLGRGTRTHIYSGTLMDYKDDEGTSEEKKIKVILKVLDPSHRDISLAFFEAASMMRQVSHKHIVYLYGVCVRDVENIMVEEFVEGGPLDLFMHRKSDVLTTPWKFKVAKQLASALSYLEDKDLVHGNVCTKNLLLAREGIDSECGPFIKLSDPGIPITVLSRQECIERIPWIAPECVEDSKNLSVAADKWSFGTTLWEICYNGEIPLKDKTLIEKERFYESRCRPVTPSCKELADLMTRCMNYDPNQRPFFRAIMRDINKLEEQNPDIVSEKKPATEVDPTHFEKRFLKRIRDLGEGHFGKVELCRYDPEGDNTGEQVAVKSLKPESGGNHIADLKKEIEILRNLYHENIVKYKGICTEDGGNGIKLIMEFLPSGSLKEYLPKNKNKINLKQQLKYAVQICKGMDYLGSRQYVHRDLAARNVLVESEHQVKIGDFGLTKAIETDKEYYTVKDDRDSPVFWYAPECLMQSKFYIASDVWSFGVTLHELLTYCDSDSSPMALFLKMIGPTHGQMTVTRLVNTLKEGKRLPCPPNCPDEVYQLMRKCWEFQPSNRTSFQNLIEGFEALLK
T3 sequence (P29597 whole entry): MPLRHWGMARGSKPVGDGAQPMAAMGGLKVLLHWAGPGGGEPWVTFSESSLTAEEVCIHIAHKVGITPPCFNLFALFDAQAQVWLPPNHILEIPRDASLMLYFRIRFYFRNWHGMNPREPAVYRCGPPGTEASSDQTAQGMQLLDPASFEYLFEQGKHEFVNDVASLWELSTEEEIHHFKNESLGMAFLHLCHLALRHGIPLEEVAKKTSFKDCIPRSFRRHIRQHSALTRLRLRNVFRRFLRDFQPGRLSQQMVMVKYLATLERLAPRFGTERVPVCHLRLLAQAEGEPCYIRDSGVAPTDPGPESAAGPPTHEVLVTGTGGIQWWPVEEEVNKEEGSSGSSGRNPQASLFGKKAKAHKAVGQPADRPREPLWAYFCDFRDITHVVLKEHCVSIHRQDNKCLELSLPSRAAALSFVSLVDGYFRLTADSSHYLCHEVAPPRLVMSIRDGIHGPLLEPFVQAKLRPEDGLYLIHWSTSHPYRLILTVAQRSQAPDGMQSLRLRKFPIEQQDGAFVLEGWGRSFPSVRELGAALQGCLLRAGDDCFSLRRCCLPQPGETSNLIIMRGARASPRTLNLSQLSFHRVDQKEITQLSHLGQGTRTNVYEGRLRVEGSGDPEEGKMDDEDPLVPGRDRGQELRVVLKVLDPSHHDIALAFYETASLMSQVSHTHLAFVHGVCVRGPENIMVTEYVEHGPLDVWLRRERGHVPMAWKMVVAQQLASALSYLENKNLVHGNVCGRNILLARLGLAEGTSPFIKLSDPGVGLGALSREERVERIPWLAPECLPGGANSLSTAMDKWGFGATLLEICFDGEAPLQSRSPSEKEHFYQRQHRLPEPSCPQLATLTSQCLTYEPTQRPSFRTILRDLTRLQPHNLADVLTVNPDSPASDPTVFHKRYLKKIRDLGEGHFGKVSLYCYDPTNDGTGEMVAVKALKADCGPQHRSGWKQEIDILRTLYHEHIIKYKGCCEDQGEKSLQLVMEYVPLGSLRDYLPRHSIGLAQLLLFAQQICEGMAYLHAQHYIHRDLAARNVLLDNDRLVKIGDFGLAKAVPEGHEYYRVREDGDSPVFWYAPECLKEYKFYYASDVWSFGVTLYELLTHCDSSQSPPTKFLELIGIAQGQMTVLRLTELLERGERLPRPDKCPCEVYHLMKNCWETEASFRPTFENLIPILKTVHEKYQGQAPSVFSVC
T2 sequence (O60674 whole entry): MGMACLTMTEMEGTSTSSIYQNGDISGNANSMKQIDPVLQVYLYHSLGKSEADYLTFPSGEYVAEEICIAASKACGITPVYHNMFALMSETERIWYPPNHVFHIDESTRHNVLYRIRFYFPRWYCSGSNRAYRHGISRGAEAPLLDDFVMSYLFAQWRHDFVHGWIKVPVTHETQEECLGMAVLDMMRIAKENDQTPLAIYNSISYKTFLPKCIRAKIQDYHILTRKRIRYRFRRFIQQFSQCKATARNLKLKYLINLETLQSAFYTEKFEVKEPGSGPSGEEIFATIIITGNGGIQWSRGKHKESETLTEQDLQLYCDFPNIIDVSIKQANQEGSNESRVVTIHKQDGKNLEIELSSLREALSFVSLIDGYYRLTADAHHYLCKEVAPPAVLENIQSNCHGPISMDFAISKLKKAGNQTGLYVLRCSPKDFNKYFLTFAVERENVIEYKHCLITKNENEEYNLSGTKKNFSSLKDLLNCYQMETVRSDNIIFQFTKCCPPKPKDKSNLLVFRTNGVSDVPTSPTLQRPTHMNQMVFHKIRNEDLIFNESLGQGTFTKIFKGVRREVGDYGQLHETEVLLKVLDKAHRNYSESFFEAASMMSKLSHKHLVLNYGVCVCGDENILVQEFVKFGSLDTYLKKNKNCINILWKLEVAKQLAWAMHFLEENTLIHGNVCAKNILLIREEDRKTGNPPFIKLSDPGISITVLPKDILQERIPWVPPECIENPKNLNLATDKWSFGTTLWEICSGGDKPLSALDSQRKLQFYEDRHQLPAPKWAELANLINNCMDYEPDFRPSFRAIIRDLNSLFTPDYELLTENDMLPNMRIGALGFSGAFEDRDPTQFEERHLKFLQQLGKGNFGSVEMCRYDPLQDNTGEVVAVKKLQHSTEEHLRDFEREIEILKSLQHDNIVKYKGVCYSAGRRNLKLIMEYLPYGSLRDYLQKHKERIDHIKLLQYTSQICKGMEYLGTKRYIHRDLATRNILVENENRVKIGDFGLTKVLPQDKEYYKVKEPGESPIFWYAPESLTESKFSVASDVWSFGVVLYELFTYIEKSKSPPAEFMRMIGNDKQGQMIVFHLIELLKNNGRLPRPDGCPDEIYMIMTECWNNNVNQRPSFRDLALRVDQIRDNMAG

| Compound | Ki (JAK1) | Ki (JAK2) | Ki (Tyk2) | IC50 [1, 2] | Ki (JAK3) | JAK3 (pKi)-JAK1 (pKi) (JAK3; [3]) | IC50 [1, 4] | JAK3 (pKi)-JAK1 (pKi) (JAK3; [5]) | JAK 1 (pKi) (JAK1) | JAK 2 (pKi) (JAK2) | Tyk 2 (pKi) (Tyk2) | Tall-1 (pIC50) [1, 6] | JAK 3 (pKi) (JAK3) | Tall-1 (pIC50) [1, 7] | IC50 [1, 7] |
| --- | --- | --- | --- | --- | --- | --- | --- | --- | --- | --- | --- | --- | --- | --- | --- |
| CN(C)C/C=C/C(=O)N1CC(C)(COc2cc(-c3ccc(O)cc3)cc3[nH]ncc23)C1 [Compound 3-7] | > 0.1 µM | 0.01 to 0.1 µM | > 0.1 µM | 0.0316 to 0.2 µM | < 0.0001 µM | A (a value of 3 or above) | – | – | – | – | – | – | – | – | – |
| C=CC(=O)N1CCS[C@@H](C(=O)Nc2cc(-c3ccc(O)cc3)cc3[nH]ncc23)C1 [Compound 12-44] | > 0.1 µM | 0.01 to 0.1 µM | > 0.1 µM | – | < 0.0001 µM | – | 0.0316 to 0.2 µM | A (a value of 3 or above) | – | – | – | – | – | – | – |
| CN(C)C/C=C/C(=O)N1CC(C)(Oc2cc(-c3ccc(O)c(F)c3)cc3[nH]ncc23)C1 [Compound 5-19] | – | – | – | – | – | – | – | A (a value of 3 or above) | E (a pKi value of 7 or below (Ki of 100 nM or above)) | E (a pKi value of 7 or below (Ki of 100 nM or above)) | E (a pKi value of 7 or below (Ki of 100 nM or above)) | B (a pIC50 value between 6.7 (included) and 7.5 (IC50 between 200 nM and 32 nM)) | B (a pKi value between 9 and 10 (Ki between 1 nM and 0.1 nM)) | – | – |
| CN(C)C/C=C/C(=O)N1CCSC[C@@H]1C(=O)Nc1cc(-c2ccc(O)cc2)cc2[nH]ncc12 [Compound 12-65] | > 0.1 µM | > 0.1 µM | > 0.1 µM | – | 0.0001 to 0.001 µM | – | 0.2 to 1 µM | A (a value of 3 or above) | – | – | – | – | – | – | – |
| C=CC(=O)N1C2CCC1CC(Oc1cc(-c3ccc(O)cc3)cc3[nH]ncc13)C2 (stereo not drawn) [Compound 10-2] | – | – | – | – | – | – | – | B (a value of 2.3 to 3) | D (a pKi value between 7 and 8 (Ki between 100 nM and 10 nM)) | C (a pKi value between 8 and 9 (Ki between 10 nM and 1 nM)) | D (a pKi value between 7 and 8 (Ki between 100 nM and 10 nM)) | A (a pIC50 value≥7.5 (IC50≤32 nM)) | A (a pKi value≥10 (Ki≤0.1 nM)) | – | – |
| C=CC(=O)N1CC2(CC(Oc3nc(-c4ccc(O)cc4)cc4[nH]ncc34)C2)C1 [Compound 15-7] | – | – | – | – | – | – | – | B (a value of 2.3 to 3) | E (a pKi value of 7 or below (Ki of 100 nM or above)) | D (a pKi value between 7 and 8 (Ki between 100 nM and 10 nM)) | E (a pKi value of 7 or below (Ki of 100 nM or above)) | A (a pIC50 value≥7.5 (IC50≤32 nM)) | B (a pKi value between 9 and 10 (Ki between 1 nM and 0.1 nM)) | – | – |
| C=CC(=O)N1CCC(Oc2cc(-c3ccc(O)cc3)cc3[nH]ncc23)CC1 [Compound 6-2] | 0.01 to 0.1 µM | 0.01 to 0.1 µM | > 0.1 µM | – | < 0.0001 µM | – | < 0.0316 µM | B (a value of 2.3 to 3) | – | – | – | – | – | – | – |
| CN(C)C/C=C/C(=O)N1CC(C#N)(COc2cc(-c3ccc(O)cc3)cc3[nH]ncc23)C1 [Compound 3-19] | – | – | – | – | – | A (a value of 3 or above) | – | – | E (a pKi value of 7 or below (Ki of 100 nM or above)) | E (a pKi value of 7 or below (Ki of 100 nM or above)) | E (a pKi value of 7 or below (Ki of 100 nM or above)) | – | B (a pKi value between 9 and 10 (Ki between 1 nM and 0.1 nM)) | B (a pIC50 value between 6.7 (included) and 7.5 (IC50 between 200 nM and 32 nM)) | – |
| C=CC(=O)N1C2CCC1CC(Oc1cc(-c3ccc(O)cc3)cc3[nH]ncc13)C2 (stereo not drawn) [Compound 9-1] | – | – | – | – | – | – | – | A (a value of 3 or above) | E (a pKi value of 7 or below (Ki of 100 nM or above)) | D (a pKi value between 7 and 8 (Ki between 100 nM and 10 nM)) | E (a pKi value of 7 or below (Ki of 100 nM or above)) | A (a pIC50 value≥7.5 (IC50≤32 nM)) | A (a pKi value≥10 (Ki≤0.1 nM)) | – | – |
| C=CC(=O)N1CCC(C)(Nc2nc(-c3ccc(O)c(Cl)c3)cc3[nH]ncc23)CC1 [Compound 7-14] | – | – | – | – | – | – | – | B (a value of 2.3 to 3) | E (a pKi value of 7 or below (Ki of 100 nM or above)) | D (a pKi value between 7 and 8 (Ki between 100 nM and 10 nM)) | E (a pKi value of 7 or below (Ki of 100 nM or above)) | A (a pIC50 value≥7.5 (IC50≤32 nM)) | B (a pKi value between 9 and 10 (Ki between 1 nM and 0.1 nM)) | – | – |
| CN(C)C/C=C/C(=O)N1CCC(C)(Nc2cc(-c3ccc(O)c(F)c3)cc3[nH]ncc23)CC1 [Compound 7-12] | – | – | – | – | – | – | – | A (a value of 3 or above) | E (a pKi value of 7 or below (Ki of 100 nM or above)) | D (a pKi value between 7 and 8 (Ki between 100 nM and 10 nM)) | E (a pKi value of 7 or below (Ki of 100 nM or above)) | B (a pIC50 value between 6.7 (included) and 7.5 (IC50 between 200 nM and 32 nM)) | B (a pKi value between 9 and 10 (Ki between 1 nM and 0.1 nM)) | – | – |
| C=CC(=O)N1CC(CC)(COc2nc(-c3ccc(O)c(F)c3)nc3[nH]ncc23)C1 [Compound 3-67] | > 0.1 µM | > 0.1 µM | > 0.1 µM | 0.0316 to 0.2 µM | 0.0001 to 0.001 µM | A (a value of 3 or above) | – | – | – | – | – | – | – | – | – |
| C=CC(=O)N1CC(COc2cc(-c3ccc(O)c(C)c3)cc3[nH]ncc23)C1 [Compound 18-9] | > 0.1 µM | > 0.1 µM | > 0.1 µM | – | < 0.0001 µM | – | < 0.0316 µM | A (a value of 3 or above) | – | – | – | – | – | – | – |
| C=CC(=O)N1CC(C#N)(COc2cc(-c3ccc(O)c(Cl)c3)cc3[nH]ncc23)C1 [Compound 3-22] | > 0.1 µM | > 0.1 µM | > 0.1 µM | – | < 0.0001 µM | A (a value of 3 or above) | – | – | – | – | – | – | – | – | 0.0316 to 0.2 µM |
| CN(C)C/C=C/C(=O)N1CC(F)(COc2nc(-c3ccc(O)c(Cl)c3)nc3[nH]ncc23)C1 [Compound 3-50] | > 0.1 µM | > 0.1 µM | > 0.1 µM | 0.0316 to 0.2 µM | 0.0001 to 0.001 µM | A (a value of 3 or above) | – | – | – | – | – | – | – | – | – |
| C=CC(=O)N1C[C@@H](Oc2cc(-c3ccc(O)cc3)cc3[nH]ncc23)CC[C@@H]1C [Compound 12-33] | > 0.1 µM | > 0.1 µM | > 0.1 µM | – | 0.0001 to 0.001 µM | – | 0.0316 to 0.2 µM | A (a value of 3 or above) | – | – | – | – | – | – | – |
| C=CC(=O)N1CC(CN(C)c2cc(-c3ccc(O)c(F)c3)cc3[nH]ncc23)C1 [Compound 4-7] | – | – | – | – | – | B (a value of 2.3 to 3) | – | – | E (a pKi value of 7 or below (Ki of 100 nM or above)) | E (a pKi value of 7 or below (Ki of 100 nM or above)) | E (a pKi value of 7 or below (Ki of 100 nM or above)) | – | C (a pKi value between 8 and 9 (Ki between 10 nM and 1 nM)) | B (a pIC50 value between 6.7 (included) and 7.5 (IC50 between 200 nM and 32 nM)) | – |

From patent US10392368B2, “Pyrazolo and triazolo bicyclic compounds as JAK kinase inhibitors” (THERAVANCE BIOPHARMA R&D IP, LLC, priority 2017, dated 2019)
